Where two headings read alike, the source gives them in different places.
Key:
Rat [1] = experiment: Maximal electroshock seizure (MES) test, rat (po); format: in vivo
Method: The maximal electroconvulsive shock (MES) test is regarded as a standard screen for anticonvulsant activity in terms of inhibition of seizure spread in generalized tonic-clonic seizures.
Groups of at least 8 male albino CF No. 1 mice or male albino Sprague-Dawley rats are treated with 10 mL/kg i.p. or 4 mL/kg p.o. of the test compound solution, respectively. The electrical stimulus in the MES test is 50 mA at 60 Hz for mice and 150 mA at 60 Hz for rats, both delivered for 0.2 sec. Abolition of the hind leg tonic extensor component of the seizure is used as the endpoint.

Mice [2] = experiment: Maximal electroshock seizure (MES) test, mice (ip);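 note: male albino CF No. 1 mice dosed ip, MES stimulus 50 mA at 60 Hz lasting 0.2 s, efficacy endpoint is loss of hind leg tonic extension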
Mice [3] = experiment: Formalin test (mice, ip); format: in vivo; settings: for Formalin Assay Acute (%) / Formalin Assay Inflam. (%): mice, ip; for Formalin Test (mice, ip) Inflammatory (%): duration of licking as percent of control, late phase
Method: Compounds of the present invention were active in treating pain in a formalin test carried out in accordance with standard techniques, as described in S. Hunskaar et al., J. Neurosci. Methods 14: 69-76 (1985). Briefly, 0.5% formalin is injected into the mouse hind paw to elicit a bi-phasic licking response, where the first acute phase is thought to correspond to the direct stimulation of peripheral fibers and the second (inflammatory) phase is caused by the release of inflammatory mediators.
Spinal/supraspinal plasticity of nociception is considered as a molecular basis for neuropathic pain particularly during the second (late) phase of the test (Dubuisson & Dennis, 1977; Coderre et al., 1990; Coderre & Melzack, 1992), during which most clinically used drugs against neuropathic pain are active.

[4] = Behavioral toxicity, rat (po); format: in vivo; settings: Sprague-Dawley, in vivo, po, read-out: Rat (po) Tox, TD50
Method: (§1) Tests are conducted in groups of at least 8 mice or rats to determine the intrinsic neurotoxicity (neuromuscular impairment) after administration of the test compound by the route of administration to be used in the pharmacology studies. Neurotoxicity is determined in male CF No 1 mice by the rotarod procedure. Inability of the mouse to maintain its equilibrium in 3 trials during 1 min on this rotating rod (6 rpm) is used as an indication of such impairment. In Sprague-Dawley rats, minimal motor impairment (MMI) is determined by overt evidence of ataxia, abnormal gait, and stance.

[5] = Neurological toxicity, rotorod test, mice (ip); format: in vivo; settings: male, CF No 1, mouse, in vivo
Method: as §1

Rat [6] = experiment: Behavioral toxicity, rat (po); format: in vivo
Method: as §1

Rats = experiment: Hippocampal kindling test, rats (ip); format: in vivo; settings: for ED50: Rattus norvegicus, ip, read-out: Hippocampal Kindled Rats (ip) ED50 (interval)
Method: The kindling model provides a tool to predict a test compound's activity in complex partial seizures.
Male albino Sprague-Dawley rats (n=8) are kindled to a Stage 5 behavioral seizure. They are treated with an appropriate i.p. dose of the test compound after a 1-week, stimulus-free period. The test compound is evaluated for its effect on kindled motor seizures (seizures scores of 4 and 5), limbic behavior seizures (seizure scores between 1 and 3) and after-discharge duration. After 15 min, each rat is stimulated every 30 min for 3-4 h. Following each stimulation, individual seizure scores and after-discharge duration are recorded. The group mean and standard error of the mean (SEM) are calculated for each parameter.

Mice [7] = experiment: 6 Hz test, mice (ip); format: in vivo
Mice [8] = experiment: Neurological toxicity, rotorod test, mice (ip); format: in vivo
Method: as §1

Mice [9] = settings: Ref 30, 16, 32; cited from earlier work
Mice [10] = settings: rotorod, Ref 30, 16, 32; cited from earlier work
Mice [11] = system: Mice
[12] = Rattus norvegicus, Table b502, orally, read-out: Rat (po) MES, ED50
[13] = Table b502, protective index (TD50/ED50)
[14] = Table b502, ip, protective index (TD50/ED50)
[15] = Table b502, orally, behavioral toxicity
[16] = Table b501, ip, protective index (TD50/ED50)
[17] = Table b500, orally, behavioral toxicity
[18] = Table b501, orally, behavioral toxicity

COC[C@@H](NC(C)=O)C(=O)NCc1ccc(OC(F)(F)F)cc1 [(R)-4]
ED50 (Rat [1]; Rattus norvegicus, read-out: Rat (po) MES, ED50): > 30 mg/kg
Mice (ip) PI (Mice [2]; ip, PI=TD50/ED50): ~9.3
Formalin Assay Acute (%) (Mice [3]; dose 4.0 (mg)): 52%
Formalin Assay Inflam. (%) (Mice [3]; dose 4.0 (mg)): 50%
TD50 [4]: > 30 mg/kg

COC[C@@H](NC(C)=O)C(=O)NCc1ccc(OCc2ccccc2)cc1 [(R)-20, (R)—N-4′-(Benzyloxy)benzyl 2-N-Acetamido-3-methoxypropionamide]
melting point: 149 °C
ED50 (Rat [1]; [12]): 5.6 mg/kg
Rat (po) PI (Rat [1]; [13]): >45
Mice (ip) MES, ED50 (Mice [2]; Table b502, intraperitoneally): 5.8 [0.25] (4.4-7.2) mg/kg
Mice (ip) PI (Mice [2]; [14]): 3.8
TD50 ([5]; rotorod test, read-out: Mice (ip) Tox, TD50): 22 mg/kg
Rat (po) Tox, TD50 (Rat [6]; [15]): >250 [1.0] mg/kg

COC[C@@H](NC(C)=O)C(=O)NCc1ccc(OCc2cccc(F)c2)cc1 [(R)-10, (R)-2-Acetamido-N-(4-(3-fluorobenzyloxy)benzyl)-3-methoxypropanamide]
Rat (po) MES, ED50 (Rat [1]): 4.9 [1]
Rat (po) PI (Rat [1]; PI=TD50/ED50): >57
ED50 (Rat [1]; Rattus norvegicus, Table b500, orally, read-out: Rat (po) MES, ED50): 14 mg/kg
ED50 (Rat [1]; [12]): 14 mg/kg
ED50 (Rat [1]; Rattus norvegicus, read-out: Rat (po) MES, ED50, Table b501, orally): 1.4 mg/kg
Rat (po) PI (Rat [1]; Table b500, protective index (TD50/ED50)): >36
Rat (po) PI (Rat [1]; Table b501, protective index (TD50/ED50)): >36
Rat (po) PI (Rat [1]; [13]): >36
Mice (ip) PI (Mice [2]; Table b500, ip, protective index (TD50/ED50)): 2
Mice (ip) MES, ED50 (Mice [2]; Table b501, intraperitoneally): 13 [0.25] mg/kg
Mice (ip) PI (Mice [2]; [16]): 2
Mice (ip) MES, ED50 (Mice [2]; Table b502, intraperitoneally): 13 [0.25] mg/kg
Mice (ip) PI (Mice [2]; [14]): 2
Mice (ip) PI (Mice [2]; ip, PI=TD50/ED50): ~3.1
Preliminary Hippocampal Kindling Test (Rats) After discharge duration, Drug (Rats; rats, after drug (pre-drug duration in neighbouring column)): 0 s
Preliminary Hippocampal Kindling Test (Rats) Seizure Score, Drug (Rats; rats, after drug (pre-drug score in neighbouring column)): 0
Mice (ip) 6 Hz, ED50 (Mice [7]; Table b500, intraperitoneally): ~10 [0.25] mg/kg
Mice (ip) 6 Hz, ED50 (Mice [7]; Table b501, intraperitoneally): ~10 [0.25] mg/kg
Mice (ip) 6 Hz, ED50 (Mice [7]; Table b502, intraperitoneally): ~10 [0.25] mg/kg
Formalin Test (mice, ip) Inflammatory (%) (Mice [3]; dose 15 mg/kg): 44 (10) %
Formalin Assay Acute (%) (Mice [3]; dose 25 (mg)): 80%
Formalin Assay Inflam. (%) (Mice [3]; dose 25 (mg)): 70%
Mice (ip) Tox, TD50 (Mice [8]; Table b500, rotorod test): 26 [0.5] mg/kg
Mice (ip) Tox, TD50 (Mice [8]; Table b502, rotorod test): 26 [0.5] mg/kg
Mice (ip) Tox, Td50 (Mice [8]; rotorod test): 26 [0.5] mg/kg
Rat (po) Tox, TD50 (Rat [6]; [17]): >500 [0.5] mg/kg
Rat (po) Tox, TD50 (Rat [6]; [18]): >500 [0.5] mg/kg
Rat (po) Tox, TD50 (Rat [6]; [15]): >500 [0.5] mg/kg
Rat (po) Tox, TD50 (Rat [6]; po): > 280 mg/kg

CCC1(c2ccccc2)C(=O)NC(=O)NC1=O [phenobarbital]
ED50 (Rats): 20 mg/kg

CC(=O)N[C@@H](C)C(=O)NCc1ccccc1 [(S)-4, reference compound]
Mice (ip) Mes, ED50 (Mice [9]): 8.0 mg/kg
Mice (ip) Tox, TD50 (Mice [10]): 630 mg/kg

COC[C@@H](NC(C)=O)C(=O)NCc1ccccc1 [(R)-B, (2R)-2-(acetylamino)-N-benzyl-3-methoxypropanamide, reference compound]
ED50 (Rats): 14 mg/kg
Formalin Test (mice, ip) Inflammatory (%) (Mice [3]; dose 5 mg/kg): 31 [<0.01] %

CC(=O)N[C@@H](C)C(=O)NCc1ccc(OCc2cccc(F)c2)cc1 [(S)-6, (S)—N-4-(3-Fluorobenzyloxy)benzyl 2-Acetamidopropionamide]
melting point: 153 to 154 °C
Mice (ip) Tox, TD50 (Mice [8]; Table b500, rotorod test): >300 [0.5] mg/kg
Rat (po) Tox, TD50 (Rat [6]; [17]): >30 [0.25 to mg/kg

COC[C@@H](NC(C)=O)C(=O)NCc1ccc(C2(C(F)(F)F)N=N2)cc1 [(R)-9, (R)-2-Acetamido-3-methoxy-N-(4-(3-(trifluoromethyl)-3H-diazirin-3-yl)benzyl)propanamide]
melting point: 195 °C (dec.)
ED50 (Rat [1]; read-out: Rat (po) MES, ED50): > 30 mg/kg
Mice (ip) PI (Mice [2]; ip, PI=TD50/ED50): 4.4
Mice (ip) MES, ED50 (Mice [11]): 15.05 [0.25] (13.93- 16.39)
TD50 ([5]; read-out: Mice (ip) Tox, TD50): 68 mg/kg
TD50 [4]: > 30 mg/kg

COC[C@@H](NC(C)=O)C(=O)NCc1ccc(Oc2cccc(F)c2)cc1 [(R)-12, (R)—N-4′-((3″-Fluoro)phenoxy)benzyl 2-N-Acetamido-3-methoxypropionamide]
melting point: 125 to 126 °C
Mice (ip) MES, ED50 (Mice [2]; Table b501, intraperitoneally): 5.5 [0.25] (3.2-6.3) mg/kg
Mice (ip) PI (Mice [2]; [16]): 4.2
ED50 (Mice [7]; Mus musculus, ip, intraperitoneally): ~10 mg/kg
TD50 ([5]; rotorod test, read-out: Mice (ip) Tox, Td50): 23 mg/kg
Rat (po) Tox, TD50 (Rat [6]; [18]): >10 [0.25-4.0] mg/kg

— patent US8829033B2, “N-benzylamide substituted derivatives of 2-(acylamido)acetic acid and 2-(acylamido)propionic acids: potent neurological agents” (The University of North Carolina at Chapel Hill, priority 2009, dated 2014)
